# Assay results published in patent US10221426B2, “Constitutively active PYR/PYL receptor proteins for improving plant stress tolerance” (The Regents of the University of California, priority 2009, dated 2019).
# System: Arabidopsis seeds
# Test: Seed germination inhibition
# Format: in vivo
# Details: for amount required to ensure 100% inhibition of germination: scored 3 days post-imbibition, dose curve analyses
# Description: FIG. 1. Pyrabactin is a seed selective ABA agonist. (A) Structures of molecules described in this study. (B) Pyrabactin activity is suppressed by abi1-1. Seeds of the genotype shown at top were imbibed on media containing 25 μM pyrabactin and scored for germination 4 days after stratification. Shown at bottom are IC50 values for pyrabactin's germination effect on the genotypes characterized. (C) Microarray comparison of pyrabactin and ABA treatments in seeds. The Y-axis plots the log2 transformed value for a probe's response to 25 μM pyrabactin (relative to untreated control) and the X-axis a probe's response to 1 μM ABA. […] (D) Microarray comparison of cycloheximide and ABA responses in seeds. […] (E) Microarray comparison of pyrabactin and ABA responses in seedlings. Seven-day old seedlings were transferred to 10 μM ABA or 50 μM pyrabactin containing plates for 24 hours and then mRNA samples profiled. Inset in each scatter plot is the Pearson correlation coefficient for each comparison. Detailed microarray methods are described in the Examples section.
# FIG. 2. PYR1 encodes an ABA responsive START-domain protein. (A) Pyr1 alleles. Shown are the allele names, strain names (in parentheses) and amino acid changes caused by the Pyr1 mutant alleles identified by screening for pyrabactin resistant mutations. (B) Pictographic representation of Pyr1 and Pyl1-Pyl4 expression values housed in public microarray databases. The heatmap shown at top right is for the first upper three panels and the bottom heatmap for the guard cell data. Plots were made using the eFP browser (D. Winter et al., PLoS ONE 2, e718 (2007)). (C) 35S::GFP-PYR1 complements pyr1-1. Seeds of the genotypes shown were stratified 4 days on 25 μM pyrabactin and then germinated at RT, 90% RH for 3 days in darkness. […] (D) Pyr/Pyls are required for normal ABA-induced gene expression in seedlings. Shown are qRT-PCR results for the ABA-responsive gene RD29. L, Ler; C, Col; and Q, quadruple mutant. (E) Pyr/Pyl genes are required for normal ABA-induced stress-induced gene expression in seedlings. Shown are qRT-PCR results for two ABA-responsive taqman probes, as described in the Examples section. L=Ler, C=Col, Q=quadruple mutant.
# As part of an earlier effort, we identified a germination inhibitor named pyrabactin (Y. Zhao et al., Nat Chem Biol 3, 716 (2007)). […] To test this hypothesis, we examined the pyrabactin sensitivity of mutant lines with altered ABA signaling, biosynthesis or gibberellic acid (GA) perception.
# We next performed microarray experiments to evaluate the similarity of the transcriptional responses induced by ABA and pyrabactin treatments. For microarray, tissue was prepared and RNA extracted from Columbia wild type seeds sown on 0.5×MS media (˜2500 seeds per 150 mm plate) containing either 1 μM ABA, 25 μM pyrabactin, 25 μM 2,4-Dinitrophenol (DNP), 1 μM cycloheximide, 2 μM methotrexate or 1% DMSO control plates (all chemicals are dissolved in DMSO). The concentrations utilized for these experiments were normalized for germination inhibition activity by dose curve analyses, i.e. the amount of both compounds required to ensure 100% inhibition of germination when scored 3 days post-imbibition. ABA (±stereoisomers), DNP, cycloheximide and methotrexate were purchased from Sigma Aldrich. Seeds were stratified for 4 days and then incubated in the dark at room temperature for 24 hours. […]
SMILES,effect on germination (in vivo),amount required to ensure 100% inhibition of germination [µM],"germination of Columbia wild type seeds (stratified 4 days on 25 μM pyrabactin, germinated at RT, 90% RH for 3 days in darkness)"
O=S(=O)(NCc1ccccn1)c1ccc(Br)c2ccccc12 [pyrabactin],inhibits germination,25,unable to germinate
"CC1=CC(=O)CC(C)(C)[C@@]1(O)/C=C/C(C)=C\C(=O)O [ABA, Abscisic acid]",–,1,–
